Patent publication US7879880B2, “Substituted aniline derivatives useful as histamine H3 antagonists” (Schering Corporation, priority 2005, dated 2011)

Tests used:
[1] = target: T1, guinea pig brain H3 receptor (Cavia porcellus, UniProt Q9JI35); test: H3-receptor binding assay, guinea pig brain membranes; conditions: [3H]R-α-methyl histamine or [3H]Nα-methyl histamine
T1 construct: The brain tissue was homogenized with a solution of 50 mM Tris, pH 7.5; from tissue; host or cells: guinea pig brain membranes
Experimental: (§1) The source of the H3 receptors in this experiment was guinea pig brain. Alternatively, the source of H3 receptors was recombinant human receptor, expressed in HEK-293 (human embryonic kidney) cells.
The animals weighed 400-600 g. The brain tissue was homogenized with a solution of 50 mM Tris, pH 7.5. The final concentration of tissue in the homogenization buffer was 10% w/v. The homogenates were centrifuged at 1,000×g for 10 min. in order to remove clumps of tissue and debris. The resulting supernatants were then centrifuged at 50,000×g for 20 min. in order to sediment the membranes, which were next washed three times in homogenization buffer (50,000×g for 20 min. each). The membranes were frozen and stored at −70° C. until needed.
All compounds to be tested were dissolved in DMSO and then diluted into the binding buffer (50 mM Tris, pH 7.5) such that the final concentration was 2 μg/ml with 0.1% DMSO. Membranes were then added (400 μg of protein, 5 μg in the case of recombinant human receptor) to the reaction tubes. The reaction was started by the addition of 3 nM [^3H]R-α-methyl histamine (8.8 Ci/mmol) or 3 nM [^3H]N^α-methyl histamine (80 Ci/mmol) and continued under incubation at 30° C. for 30 min. Bound ligand was separated from unbound ligand by filtration, and the amount of radioactive ligand bound to the membranes was quantitated by liquid scintillation spectrometry. […]

[2] = Effects on diet-induced obesity in mice (weight gain and food intake); type: in vivo; conditions: mice on high-fat diet, 10 mg/kg by gavage once daily for four days, vs vehicle control
Experimental: Lean mice (male, approx. 5 weeks of age, purchased from The Jackson Laboratory, Bar Harbor, Me.) were maintained in individual cages at 22° C. on a 12:12 hr light/dark cycle. The “treated” mice (N=12) were administered a Thiazole Derivative (10 mg/kg) by gavage once daily for four consecutive days. Control mice (N=12) were administered vehicle only, once daily for four days. Both control and treated mice were fed a high-fat diet from days 0 to 4 and body weight and food intake were monitored daily. The percent inhibition for weight gain and food intake was calculated by comparing the increase in weight gain and food intake in the treated mice to the increase in weight gain and food intake in the control mice.
Compound numbers correspond to the compound numbering set forth in the specification.

[3] = target: T2, recombinant human H3 receptor (Homo sapiens, UniProt Q9Y5N1); test: H3-receptor binding assay, recombinant human receptor expressed in HEK-293 cells; conditions: [3H]R-α-methyl histamine or [3H]Nα-methyl histamine
T2 construct: expressed in transfected cells; host or cells: HEK-293 (human embryonic kidney) cells
Experimental: as §1
All compounds to be tested were dissolved in DMSO and then diluted into the binding buffer (50 mM Tris, pH 7.5) such that the final concentration was 2 μg/ml with 0.1% DMSO. Membranes were then added (400 μg of protein, 5 μg in the case of recombinant human receptor) to the reaction tubes. The reaction was started by the addition of 3 nM [^3H]R-α-methyl histamine (8.8 Ci/mmol) or 3 nM [^3H]N^α-methyl histamine (80 Ci/mmol) and continued under incubation at 30° C. for 30 min. Bound ligand was separated from unbound ligand by filtration, and the amount of radioactive ligand bound to the membranes was quantitated by liquid scintillation spectrometry. All incubations were performed in duplicate and the standard error was always less than 10%. Compounds that inhibited more than 70% of the specific binding of radioactive ligand to the receptor were serially diluted to determine a Ki (nM).

T2 sequence (Q9Y5N1 whole entry): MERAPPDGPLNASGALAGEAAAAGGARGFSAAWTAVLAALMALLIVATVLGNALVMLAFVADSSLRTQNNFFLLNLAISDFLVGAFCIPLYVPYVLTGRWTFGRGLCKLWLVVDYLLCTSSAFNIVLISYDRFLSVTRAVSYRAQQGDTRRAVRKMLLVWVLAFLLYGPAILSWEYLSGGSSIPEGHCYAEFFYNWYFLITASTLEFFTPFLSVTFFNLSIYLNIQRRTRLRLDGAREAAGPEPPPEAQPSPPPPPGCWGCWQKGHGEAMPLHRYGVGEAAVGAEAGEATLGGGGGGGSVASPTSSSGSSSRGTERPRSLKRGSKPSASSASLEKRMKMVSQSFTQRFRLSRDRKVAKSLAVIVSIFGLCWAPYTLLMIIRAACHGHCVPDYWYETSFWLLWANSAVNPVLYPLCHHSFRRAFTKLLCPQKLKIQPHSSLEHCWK
T1 sequence (Q9JI35 whole entry): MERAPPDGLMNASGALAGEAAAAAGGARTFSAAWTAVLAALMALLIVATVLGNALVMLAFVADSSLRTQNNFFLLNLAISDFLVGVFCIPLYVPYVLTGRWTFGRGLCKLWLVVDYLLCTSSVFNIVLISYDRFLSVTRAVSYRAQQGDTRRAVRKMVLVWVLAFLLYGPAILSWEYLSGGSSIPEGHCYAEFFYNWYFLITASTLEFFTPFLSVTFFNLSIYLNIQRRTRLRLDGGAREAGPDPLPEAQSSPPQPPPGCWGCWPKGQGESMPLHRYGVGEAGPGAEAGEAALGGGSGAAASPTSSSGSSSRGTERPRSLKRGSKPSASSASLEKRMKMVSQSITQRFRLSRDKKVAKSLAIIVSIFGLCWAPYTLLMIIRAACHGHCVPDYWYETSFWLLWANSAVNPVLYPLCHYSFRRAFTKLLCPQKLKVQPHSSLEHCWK

Compound	Ki [1]	Food intake Inhibition (%) [2]	Weight Gain Inhibition (%) [2]	Ki [3]
Cc1cccc(C)c1NC(=O)N1CCN(C(=O)c2ccc(Nc3ccncc3)cc2)CC1 [Compound 54A]	2 nM			
Nc1cc(Nc2ccc(C(=O)N3CCC(n4c(-c5ccccn5)nc5cccnc54)CC3)cc2)ccn1 [Compound 160A]		18.3%	33.0%	
O=C(c1ccc(Nc2ccncc2)cc1)N1CCC(n2c(-c3ccccn3)nc3cccnc32)CC1 [Compound 59A]		1.1%	21.0%	3 nM
